# Target: BTK (Homo sapiens, UniProt Q06187)
# Test: biochemical
# Conditions: read-out: BTK inhibition (%)
# Chain of BTK (Q06187 402-655 limits assumed): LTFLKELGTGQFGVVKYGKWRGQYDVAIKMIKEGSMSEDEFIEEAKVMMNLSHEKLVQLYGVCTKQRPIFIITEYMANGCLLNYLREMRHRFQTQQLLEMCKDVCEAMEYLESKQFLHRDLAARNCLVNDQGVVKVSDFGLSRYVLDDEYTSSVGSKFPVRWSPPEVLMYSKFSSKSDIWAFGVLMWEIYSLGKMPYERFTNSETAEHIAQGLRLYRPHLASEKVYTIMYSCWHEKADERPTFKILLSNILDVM
row,SMILES,inhibition at 10 µM
1,O=P1(NCCCl)OCCCN1CCCl (stereo not drawn) [PCM-0086467],-10.3%
2,COC1=C[C@@]23CCN(C)[C@@H](Cc4ccc(OC)c(O)c42)C3=CC1=O [PCM-0216320],3.1%
3,COc1cc(C)[nH]c(=O)c1CNC(=O)c1c(C)n([C@H](C)C2CCOCC2)c2ccccc12 [PCM-0214591],-24.7%

# Same assay, conditions: read-out: BTK inhibition (%), 0.75 uM BTK, […] probe 3l, 15 min preincubation
row,SMILES,inhibition at 10 µM
1,C=CC[N+]1([C@H]2C[C@H]3[C@@H]4CC[C@H]5C[C@H](O)[C@@H](N6CCOCC6)C[C@]5(C)[C@H]4CC[C@]3(C)[C@H]2OC(C)=O)CCCC1 [PCM-0214619],-24.1%
2,Nc1nc2cc(-c3ccc4ncc(C(=O)N5CCOCC5)n4c3)ccc2o1 [PCM-0215857],21.4%
3,CC1(C)CCC[C@]2(C)[C@H]3CCO[C@]3(C)CC[C@@H]12 [PCM-0215965],15.4%
4,O=C1CCC[C@@H]2[C@H]3CCCN4CCC[C@@H](CN12)[C@@H]34 [PCM-0094866],11.7%
5,O=c1[nH]c(=O)c2[nH]cnc2[nH]1 [PCM-0214891],-10.9%
6,O=C(c1cccc(Br)c1)N1CCC(N2CCCC2)CC1 [PCM-0216085],-17.8%
7,CCCCC1=NC2(CCCC2)C(=O)N1Cc1ccc(-c2ccccc2-c2nn[nH]n2)cc1 [PCM-0090383],4.3%
8,Nc1cccc2c1CN(C1CCC(=O)NC1=O)C2=O (stereo not drawn) [PCM-0094938],14.5%
9,NC(=O)c1cnc(NCCc2ccc(O)c(Cl)c2)nc1NCc1ccccc1 [PCM-0216041],47.1%
10,C[C@@]1(F)[C@H](O)[C@@H](CO)O[C@H]1n1ccc(=O)[nH]c1=O [PCM-0216055],-20%
11,CC(C)c1ccc(CO)cc1 [PCM-0216002],-6.2%
12,C=CC(=O)N1CC[C@@H](Oc2nc(Nc3ccc(N4CCC(N5CCN(C)CC5)CC4)cc3)c(C(N)=O)nc2CC)C1 [PCM-0215788],91%
13,CCN1C(=O)CNc2ncc(-c3ccc(-c4ncn[nH]4)nc3C)nc21 [PCM-0215743],11.7%
14,O=c1[nH]nc2c3c(cccc13)NC(CN1Cc3ccccc3C1)=N2 [PCM-0215799],0.8%
15,CCOC(=O)COc1ccc(/C=C2\SC(=S)NC2=O)cc1OC [PCM-0215662],84.2%
16,CCC[C@@H]1C[C@@H](C(=O)N[C@@H]([C@H]2O[C@H](SC)[C@H](O)[C@@H](O)[C@H]2O)[C@@H](C)O)N(C)C1 [PCM-0095227],-4.7%
17,CC1CNC(=O)NC1=O (stereo not drawn) [PCM-0214881],-4.7%
18,O=C(O)c1ccc(NC(=O)[C@H](Cc2ccc(O)cc2)NC(=O)c2ccccc2)cc1 [PCM-0215250],-10.1%
19,O=C(O)C1=CO[C@@H](O[C@@H]2O[C@H](CO)[C@@H](O)[C@H](O)[C@H]2O)[C@H]2[C@@H]1C=C[C@]2(O)CO [PCM-0216181],-6.9%
20,C=C1C[C@@]23CC[C@H]4[C@@](C)(CCC[C@@]4(C)C(=O)O[C@@H]4O[C@H](CO)[C@@H](O)[C@H](O)[C@H]4O)[C@@H]2CC[C@]1(O[C@@H]1O[C@H](CO)[C@@H](O)[C@H](O)[C@H]1O[C@@H]1O[C@H](CO)[C@@H](O)[C@H](O)[C@H]1O)C3 [PCM-0216121],-27.8%
21,NCCCNCCCCNCCCN [PCM-0065483],-26.9%
22,CCn1c(C(=O)N(C2CC2)C2CC2)cc2c3c(ncn3C)c(Nc3cc(C)n(C)n3)nc21 [PCM-0215708],3.4%
23,Cc1cccc(Nc2ccncc2S(=O)(=O)NC(=O)NC(C)C)c1 [PCM-0086313],-4.3%

row,SMILES,inhibition at 10 µM
1,C[C@@]12C[C@@]3(O)O[C@@H](O1)[C@]1(COC(=O)c4ccccc4)[C@H]3C[C@@]12O[C@@H]1O[C@H](COC(=O)c2ccccc2)[C@@H](O)[C@H](O)[C@H]1O [PCM-0216426],-18.5%
2,O=C(Nc1ccc(O)cc1)c1ccccc1O [PCM-0214902],-10.9%
3,Cc1cnc(Nc2ccc(F)cc2Cl)nc1-c1c[nH]c(C(=O)N[C@H](CO)c2cccc(Cl)c2)c1 [PCM-0213398],60%
4,CC(=O)O[C@@H]1C[C@H](C)CC[C@H]1C(C)C [PCM-0216217],13.1%
5,CN1C(C(=O)Nc2ccccn2)=C(O)c2sc(Cl)cc2S1(=O)=O [PCM-0090258],-0.9%
6,C[C@H](CC(=O)C[C@@H](C)[C@H]1C[C@H](O)[C@@]2(C)C3=C(C(=O)C[C@]12C)[C@@]1(C)CCC(=O)C(C)(C)[C@@H]1C[C@@H]3O)C(=O)O [PCM-0214862],-6.2%
7,Cc1[nH]c(/C=C2\C(=O)Nc3ccccc32)c(C)c1CCC(=O)O [PCM-0095149],52.4%
8,CCOc1ccc(Cc2cc([C@@H]3O[C@H](CO)[C@@H](O)[C@H](O)[C@H]3O)ccc2Cl)cc1 [PCM-0095107],-2.1%
9,c1ccc2c(CC3=NCCN3)cccc2c1 [PCM-0085846],-13.2%
10,O=C(c1ccccc1)c1ccc2n1CCC2C(=O)O (stereo not drawn) [PCM-0065461],-11.7%
11,Cc1c(Cl)c(OCC(=O)N2CCN(C)CC2)nc2sc(C(=O)NC3CC3)c(N)c12 [PCM-0215380],-10.8%
12,CN1C(C(=O)Nc2ccccn2)=C(O)c2ccccc2S1(=O)=O [PCM-0064770],9%
13,Cn1cc(-c2cc(Oc3cc(F)c(NC(=O)C4(C(=O)Nc5ccccc5)CC4)cc3F)ccn2)cn1 [PCM-0216116],88.8%
14,Cc1nc2ccc(NC(=O)Nc3ccnc4cccnc34)cc2o1 [PCM-0215431],-18.5%
15,Nc1c(CC(=O)O)cccc1C(=O)c1ccccc1 [PCM-0214756],-17.2%
16,CCOC(=O)CCNc1cc(N2CCc3ccccc3CC2)nc(-c2ccccn2)n1 [PCM-0095581],-0.8%
17,Cc1cccc(N(C)C(=S)Oc2ccc3ccccc3c2)c1 [PCM-0007505],4.7%
18,CC(C(=O)O)c1ccc(CC2CCCC2=O)cc1 (stereo not drawn) [PCM-0065463],1.7%
19,C=CCn1c(=O)c2cnc(Nc3ccc(N4CCN(C)CC4)cc3)nc2n1-c1cccc(C(C)(C)O)n1 [PCM-0095195],37.2%
20,C/C1=C\CC[C@H](C)C(=O)C[C@@H](C(C)C)C(=O)C1 [PCM-0216439],-3.9%
21,COc1ccc([C@@H]2CC(=O)c3c(O)cc(O[C@@H]4O[C@H](CO)[C@@H](O)[C@H](O)[C@H]4O[C@@H]4O[C@@H](C)[C@H](O)[C@@H](O)[C@H]4O)cc3O2)cc1O [PCM-0214691],-10.3%
22,CC(C)(C)c1cc(O)ccc1O [PCM-0215107],5.5%
23,NC(N)=NCCC[C@H](N)C(=O)O [PCM-0215193],2.6%

row,SMILES,inhibition at 10 µM
1,CO/N=C(\C(=O)N[C@@H]1C(=O)N2C(C(=O)[O-])=C(C[n+]3cccc4c3CCCC4)CS[C@H]12)c1csc(N)n1 [PCM-0216083],9.3%
2,Cc1cc(Nc2ccc(NC(=O)c3ccc(Nc4ccnc5ccccc45)cc3)cc2)nc(N)n1 [PCM-0215241],17%
3,CC(=O)Nc1cccc(-n2c(=O)n(C3CC3)c(=O)c3c(Nc4ccc(I)cc4F)n(C)c(=O)c(C)c32)c1 [PCM-0095350],-10.3%
4,Cc1cc(Nc2ncnc3ccc(-c4ccc(CNCCS(C)(=O)=O)o4)cc23)ccc1Oc1ccn2ncnc2c1 [PCM-0095494],-21.4%
5,C=CC(=O)N[C@H]1CCOC[C@H]1Nc1ncc2cc(-c3c(Cl)c(OC)cc(OC)c3Cl)ccc2n1 [PCM-0215807],22.1%
6,OC[C@H]1O[C@@H](O[C@H]2[C@H](O)[C@@H](O)C(O)O[C@@H]2CO)[C@H](O)[C@@H](O)[C@@H]1O (stereo partly drawn) [PCM-0215689],-3.4%
7,CCCCCCCCCCCCCCCC(=O)O[C@@H]1[C@@H](O)[C@@H](O)[C@@H]([C@H](NC(=O)[C@@H]2C[C@@H](CCC)CN2C)[C@H](C)Cl)O[C@@H]1SC [PCM-0215167],73.2%
8,CC(C)OC(=O)CCC/C=C\C[C@@H]1[C@@H](/C=C/[C@@H](O)COc2cccc(C(F)(F)F)c2)[C@H](O)C[C@@H]1O [PCM-0215893],-28%
9,CCCCCCCCCCCCCCCCn1cc[n+](Cc2ccccc2)c1C [PCM-0095755],-51.7%
10,CCCCOc1ccc(C(=O)Nc2ccc(F)cc2F)cc1 [PCM-0095388],-5.4%
11,O=c1c(O)c(-c2ccc(O)cc2)oc2cc(O)cc(O)c12 [PCM-0087037],67.7%
12,O=C(Nc1ccc2c(O)cc(S(=O)(=O)O)cc2c1)Nc1ccc2c(O)cc(S(=O)(=O)O)cc2c1 [PCM-0216169],29.3%
13,CC(=O)O[C@H]1C(=O)[C@@]2(C)[C@H]([C@H](OC(=O)c3ccccc3)[C@]3(O)C[C@H](OC(=O)[C@H](O)[C@@H](NC(=O)c4ccccc4)c4ccccc4)C(C)=C1C3(C)C)[C@]1(OC(C)=O)CO[C@@H]1C[C@@H]2O [PCM-0214601],-17.9%
14,COc1ccc(-c2cnc3c(-c4cccc5ncccc45)cnn3c2)cc1 [PCM-0215297],-2.3%
15,COc1cc(S(=O)(=O)O)ccc1O [PCM-0215143],-7%
16,Nc1ccc2ncnc(NCCc3ccc(Oc4ccccc4)cc3)c2c1 [PCM-0095674],-4.1%
17,CC1(C)CC[C@]2(C(=O)O[C@@H]3O[C@H](CO)[C@@H](O)[C@H](O)[C@H]3O)CC[C@]3(C)C(=CC[C@@H]4[C@@]5(C)CC[C@H](O[C@@H]6O[C@H](C(=O)O)[C@@H](O)[C@H](O)[C@H]6O[C@@H]6O[C@H](CO)[C@@H](O)[C@H](O)[C@H]6O)C(C)(C)[C@@H]5CC[C@]43C)[C@@H]2C1 [PCM-0216395],4.6%
18,CNCCN(C)Cc1cn[nH]c1-c1ccc(OC2CC(OCCC3CCOCC3)C2)cc1 (stereo not drawn) [PCM-0215762],11.6%
19,COc1cc2ncnc(Nc3ccc(Cl)cc3F)c2cc1OC [PCM-0095361],31%
20,CCc1cc(Nc2nc(-c3ccc(-n4cnc(C)c4)c(F)c3)cs2)c(C)cc1C [PCM-0215986],10%
21,NCCCC[C@H](NC(=O)[C@@H]1CCCN1C(=O)[C@@H]1CSSC[C@H](N)C(=O)N[C@@H](Cc2ccc(O)cc2)C(=O)N[C@@H](Cc2ccccc2)C(=O)N[C@@H](CCC(N)=O)C(=O)N[C@@H](CC(N)=O)C(=O)N1)C(=O)NCC(N)=O [PCM-0216267],-19.6%
22,C=C(Cc1ccccc1Cl)C(=O)OCC [PCM-0215835],-4.1%
23,COc1ccc(C[C@H](N)C(=O)N[C@H]2[C@@H](O)[C@H](n3cnc4c(N(C)C)ncnc43)O[C@@H]2CO)cc1 [PCM-0215332],-3.1%

# Reference: publication PMC8041284, “Tunable Methacrylamides for Covalent Ligand Directed Release Chemistry” (Journal of the American Chemical Society, 2021)
